Source: PMC5332327 (Journal of the American Chemical Society, 2017)

Biological target: Nan[KS1][AT1] (Streptomyces nanchangensis, UniProt Q7WTF5)
Assay: coupled KS-KR assay, chiral GC-MS of diketide methyl ester
Type: biochemical
Conditions: holo-NanACP1, NADPH, KR domain, pH 7.2

Nan[KS1][AT1], sequence (Q7WTF5 1029-1965): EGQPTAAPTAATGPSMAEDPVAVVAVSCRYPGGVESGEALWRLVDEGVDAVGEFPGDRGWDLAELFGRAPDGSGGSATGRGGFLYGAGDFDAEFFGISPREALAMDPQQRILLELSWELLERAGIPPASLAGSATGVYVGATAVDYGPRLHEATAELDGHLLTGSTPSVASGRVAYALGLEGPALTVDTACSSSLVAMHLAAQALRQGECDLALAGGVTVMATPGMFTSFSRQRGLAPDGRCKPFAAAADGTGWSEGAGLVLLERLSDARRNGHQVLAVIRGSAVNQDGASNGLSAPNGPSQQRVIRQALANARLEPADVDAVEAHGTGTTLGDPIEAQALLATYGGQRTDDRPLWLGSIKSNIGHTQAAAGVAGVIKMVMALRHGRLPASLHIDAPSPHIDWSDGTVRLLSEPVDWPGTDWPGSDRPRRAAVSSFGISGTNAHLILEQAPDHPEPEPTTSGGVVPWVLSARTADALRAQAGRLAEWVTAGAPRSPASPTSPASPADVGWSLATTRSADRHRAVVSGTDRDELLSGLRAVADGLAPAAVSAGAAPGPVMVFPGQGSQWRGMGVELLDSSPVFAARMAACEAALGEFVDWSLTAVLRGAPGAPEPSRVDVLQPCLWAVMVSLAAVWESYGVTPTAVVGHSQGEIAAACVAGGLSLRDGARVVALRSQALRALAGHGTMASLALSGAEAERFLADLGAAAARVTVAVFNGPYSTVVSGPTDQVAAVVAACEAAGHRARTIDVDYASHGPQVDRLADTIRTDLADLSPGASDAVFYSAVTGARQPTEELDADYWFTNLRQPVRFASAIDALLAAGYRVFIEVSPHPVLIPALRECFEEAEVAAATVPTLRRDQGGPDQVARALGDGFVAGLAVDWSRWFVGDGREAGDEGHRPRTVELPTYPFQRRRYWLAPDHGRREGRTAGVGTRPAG

Row | SMILES | coupled KS-KR assay, chiral GC-MS of diketide methyl ester (5 mM propionyl-SNAC, methylmalonyl-CoA, primer) | coupled KS-KR assay, chiral GC-MS of diketide methyl ester (300 uM methylmalonyl-CoA, propionyl-SNAC, extender)
1 | CCC(=O)SCCNC(C)=O [propionyl-SNAC] | condensation between propionyl-SNAC and methylmalonyl-CoA catalyzed by the polyether synthase didomain Nan[KS1][AT1] | –
2 | CC(C(=O)O)C(=O)SCCNC(=O)CCNC(=O)[C@H](O)C(C)(C)COP(=O)(O)OP(=O)(O)OC[C@H]1O[C@@H](n2cnc3c(N)ncnc32)[C@H](O)[C@@H]1OP(=O)(O)O (some centres unmarked) [methylmalonyl-CoA] | – | condensation between propionyl-SNAC and methylmalonyl-CoA catalyzed by the polyether synthase didomain Nan[KS1][AT1]
